Target: PDE6D (Homo sapiens, UniProt O43924)
Assay: Binding assay with E. coli-expressed human PDE6D
Parameters: made in house; host or cells: T7 phage amplified in E. coli
Conditions: 10 μM competitors; dot blot
Experimental: The full-length coding sequence for human PDE6D was cloned into the pRSET vector for E. coli expression. The PDE6D coding sequence was fused in-frame with a His tag for purification purposes. […] The experiments were performed in duplicate. The data were obtained by loading the eluates from the binding experiment on a dot blot apparatus and subsequent detection with a PDE6D-specific antibody.

Sequence of PDE6D (O43924 whole entry): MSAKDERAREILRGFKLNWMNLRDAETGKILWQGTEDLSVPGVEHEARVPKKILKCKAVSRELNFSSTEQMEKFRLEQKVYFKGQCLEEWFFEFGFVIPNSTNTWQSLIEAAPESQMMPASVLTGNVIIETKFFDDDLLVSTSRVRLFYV

CC(C)c1c(C(=O)Nc2ccccc2)c(-c2ccccc2)c(-c2ccc(F)cc2)n1CC[C@@H](O)C[C@@H](O)CC(=O)O [atorvastatin, reference compound] was tested, and the “binding of E. coli expressed human PDE6D to immobilized atorvastatin bait” value was “E. coli expressed human PDE6D binds to atorvastatin”.

— patent publication US7323490B2, “Pyrrole compounds and uses thereof” (Ambit Biosciences Corporation, priority 2003, dated 2008)
